Test results taken from patent publication US8110605B2, “Compound for inactivating viruses and bacteria and method of making same” (priority 2009, dated 2012).
Read-outs that look alike come from different tables or passages of the source.

Tests used:
[1] = tested on: H5N2 avian influenza virus (TW1209/04(H5N2)AIV); type: cell-based
[2] = tested on: H5N1 avian influenza virus (TW1209/03(H5N1)AIV); type: cell-based
[3] = tested on: avian influenza virus (AIV) subtype H5N2 (TW1209/04(H5N2)AIV) virions
[4] = tested on: Staphylococcus aureus strain (ATCC-25923); test: Proliferation suppression of Staphylococcus aureus, MIC by broth dilution; type: cell-based; parameters: key to MIC of S. aureus: +: Proliferation of S. aureus,; −: Antibacterial effect of S. aureus; conditions: 10^4 CFU/mL
[5] = tested on: H5N1 avian influenza virus (TW1209/03(H5N1)AIV); type: cell-based; remark: listed apart in the source
[6] = tested on: Influenza virus H1N1 subtype (A/WSN/33); type: cell-based
MDCK cells [7] = tested on: MDCK cells
MDCK cells [8] = tested on: MDCK cells; remark: listed apart in the source
[9] = tested on: Enterovirus type 71 (EV-71) virions; test: AFM of Enterovirus type 71 virions treated with the compound; conditions: for maximum height of virus particles (AFM cursor profile): 5-10 minutes, native virion 75.23 nm; for calculated RMS height of treated particles: over 60 virus particles
[10] = tested on: H5N2 avian influenza virus (TW1209/04(H5N2)AIV); type: cell-based; remark: listed apart in the source
MDCK cells [11] = tested on: MDCK cells; remark: listed apart in the source

O=C(O)C(CCCCCCCCCCS)C(=O)O [2-(10-mercaptodecyl)-propanedioic acid]
concentration protecting cells against H5N2 influenza virus infection [1]: above 1,000 ppm
CPE, H5N2 avian influenza virus treated with compound ([1]; 3 ppm): +
CPE, H5N2 avian influenza virus treated with compound ([1]; 10 ppm): +
CPE, H5N2 avian influenza virus treated with compound ([1]; 30 ppm): +
CPE, H5N2 avian influenza virus treated with compound ([1]; 100 ppm): −
CPE, H5N2 avian influenza virus treated with compound ([1]; 300 ppm): −
CPE, H5N2 avian influenza virus treated with compound ([1]; 1,000 ppm): CTX
CPE, H5N2 avian influenza virus treated with compound ([1]; 3,000 ppm): CTX
concentration protecting cells against H5N1 influenza virus infection [2]: above 1,000 ppm
CPE, H5N1 avian influenza virus treated with compound ([2]; 3 ppm): +
CPE, H5N1 avian influenza virus treated with compound ([2]; 10 ppm): +
CPE, H5N1 avian influenza virus treated with compound ([2]; 30 ppm): +
CPE, H5N1 avian influenza virus treated with compound ([2]; 100 ppm): −
CPE, H5N1 avian influenza virus treated with compound ([2]; 300 ppm): −
CPE, H5N1 avian influenza virus treated with compound ([2]; 1,000 ppm): CTX
CPE, H5N1 avian influenza virus treated with compound ([2]; 3,000 ppm): CTX
viral morphology by AFM [3]: broken down and flattened
calculated RMS height of treated particles ([3]; 100 ppm): 14.29±0.87 nm
calculated RMS height of treated particles ([3]; 1,000 ppm): 5.62±0.53 nm
MIC ([4]; Staphylococcus aureus, ATCC25923, broth dilution method, read-out: final concentration suppressing proliferation of S. aureus (MIC)): 20 µg/mL
MIC of S. aureus ([4]; final concentration 5 ppm): +
MIC of S. aureus ([4]; final concentration 10 ppm): +
MIC of S. aureus ([4]; final concentration 20 ppm): −
MIC of S. aureus ([4]; final concentration 50 ppm): −
MIC of S. aureus ([4]; final concentration 100 ppm): −
MIC of S. aureus ([4]; final concentration 200 ppm): −
concentration protecting RBC cells to sustain no agglutination (HA testing, H5N1) [5]: above 1,000 ppm
HA, H5N1 avian influenza virus treated with compound ([5]; 3 ppm): +
HA, H5N1 avian influenza virus treated with compound ([5]; 10 ppm): +
HA, H5N1 avian influenza virus treated with compound ([5]; 30 ppm): +
HA, H5N1 avian influenza virus treated with compound ([5]; 100 ppm): −
HA, H5N1 avian influenza virus treated with compound ([5]; 300 ppm): −
HA, H5N1 avian influenza virus treated with compound ([5]; 1,000 ppm): CTX
HA, H5N1 avian influenza virus treated with compound ([5]; 3,000 ppm): CTX
concentration protecting cells against infection by influenza virus H1N1 subtype (as low as) [6]: 30 ppm
CPE, H1N1 influenza virus treated with compound ([6]; 3 ppm): +
CPE, H1N1 influenza virus treated with compound ([6]; 30 ppm): −
CPE, H1N1 influenza virus treated with compound ([6]; 100 ppm): −
CPE, H1N1 influenza virus treated with compound ([6]; 300 ppm): −
CPE, H1N1 influenza virus treated with compound ([6]; 1,000 ppm): CTX
CPE, H1N1 influenza virus treated with compound ([6]; 3,000 ppm): CTX
CPE, compound only (MDCK cells [7]; 3 ppm): −
CPE, compound only (MDCK cells [7]; 10 ppm): −
CPE, compound only (MDCK cells [7]; 30 ppm): −
CPE, compound only (MDCK cells [7]; 100 ppm): −
CPE, compound only (MDCK cells [7]; 300 ppm): −
CPE, compound only (MDCK cells [7]; 1,000 ppm): CTX
CPE, compound only (MDCK cells [7]; 3,000 ppm): CTX
CPE, compound only (MDCK cells [8]; 3 ppm): −
CPE, compound only (MDCK cells [8]; 10 ppm): −
CPE, compound only (MDCK cells [8]; 30 ppm): −
CPE, compound only (MDCK cells [8]; 100 ppm): −
CPE, compound only (MDCK cells [8]; 300 ppm): −
CPE, compound only (MDCK cells [8]; 1,000 ppm): CTX
CPE, compound only (MDCK cells [8]; 3,000 ppm): CTX
viral morphology by AFM ([9]; 30 and 1,000 ppm, FIGS. 5B and 5C): broken down and flattened
maximum height of virus particles (AFM cursor profile) ([9]; 30 ppm, FIG. 5B′): ~10.35 nm
calculated RMS height of treated particles ([9]; 30 ppm): 10.49±0.52 nm
maximum height of virus particles (AFM cursor profile) ([9]; 1,000 ppm, FIG. 5C′): ~8.41 nm
calculated RMS height of treated particles ([9]; 1,000 ppm): 8.35±0.63 nm
CPE, compound only (MDCX cells; 3 ppm): −
CPE, compound only (MDCX cells; 10 ppm): −
CPE, compound only (MDCX cells; 30 ppm): −
CPE, compound only (MDCX cells; 100 ppm): −
CPE, compound only (MDCX cells; 300 ppm): −
CPE, compound only (MDCX cells; 1,000 ppm): CTX
CPE, compound only (MDCX cells; 3,000 ppm): CTX
concentration at which cytotoxicity occurred (MDCX cells; dog): exceeding 1,000 ppm
concentration causing no cytotoxicity (MDCX cells; dog): less than 300 ppm
concentration protecting RBC cells to sustain no agglutination (HA testing, H5N2) [10]: above 1,000 ppm
HA, H5N2 avian influenza virus treated with compound ([10]; 3 ppm): +
HA, H5N2 avian influenza virus treated with compound ([10]; 10 ppm): +
HA, H5N2 avian influenza virus treated with compound ([10]; 30 ppm): +
HA, H5N2 avian influenza virus treated with compound ([10]; 100 ppm): −
HA, H5N2 avian influenza virus treated with compound ([10]; 300 ppm): −
HA, H5N2 avian influenza virus treated with compound ([10]; 1,000 ppm): CTX
HA, H5N2 avian influenza virus treated with compound ([10]; 3,000 ppm): CTX
CPE, compound only (MDCK cells [11]; 3 ppm): −
CPE, compound only (MDCK cells [11]; 10 ppm): −
CPE, compound only (MDCK cells [11]; 30 ppm): −
CPE, compound only (MDCK cells [11]; 100 ppm): −
CPE, compound only (MDCK cells [11]; 300 ppm): −
CPE, compound only (MDCK cells [11]; 1,000 ppm): CTX
CPE, compound only (MDCK cells [11]; 3,000 ppm): CTX
